In US7169786B2, “Isoxazoline derivatives as anti-depressants” (priority 2001, dated 2007):

Legend:
[1] = target: T1, hα2A receptor (Homo sapiens, UniProt P08913); assay: Radioligand binding experiment for hα2A receptor ([3H]-raulwolscine); settings: membranes of CHO cells expressing human α2A receptor, [3H]raulwolscine 1 nM; for IC50: read-out: hα2A pIC50 (converted)
T1 construct: expressed in transfected cells
T1 sequence (P08913 1-465): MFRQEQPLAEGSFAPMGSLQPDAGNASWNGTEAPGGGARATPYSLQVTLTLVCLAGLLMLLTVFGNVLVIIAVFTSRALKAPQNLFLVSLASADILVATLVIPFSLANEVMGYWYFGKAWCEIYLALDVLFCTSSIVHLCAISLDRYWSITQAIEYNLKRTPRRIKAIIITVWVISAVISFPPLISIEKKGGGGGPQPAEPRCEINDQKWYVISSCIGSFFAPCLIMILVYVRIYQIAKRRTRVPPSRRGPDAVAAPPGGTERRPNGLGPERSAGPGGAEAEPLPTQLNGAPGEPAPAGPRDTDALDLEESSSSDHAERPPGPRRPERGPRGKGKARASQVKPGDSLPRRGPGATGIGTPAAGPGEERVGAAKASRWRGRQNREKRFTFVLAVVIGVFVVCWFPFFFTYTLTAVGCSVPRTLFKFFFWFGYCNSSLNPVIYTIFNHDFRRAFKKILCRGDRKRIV
Method: (§1) The interaction of the compounds of Formula (I) with hα2-receptors and h5-HT-transporters was assessed in in vitro radioligand binding experiments. In general, a low concentration of a radioligand with a high binding affinity for a particular receptor or transporter is incubated with a sample of a tissue preparation enriched in a particular receptor or transporter or with a preparation of cells expressing cloned human receptors in a buffered medium. During the incubation, the radioligand binds to the receptor or transporter. When equilibrium of binding is reached, the receptor bound radioactivity is separated from the non-bound radioactivity, and the receptor- or transporter-bound activity is counted. The interaction of the test compounds with the receptor is assessed in competition binding experiments. Various concentrations of the test compound are added to the incubation mixture containing the receptor- or transporter preparation and the radioligand. The test compound in proportion to its binding affinity and its concentration inhibits binding of the radioligand. The radioligand used for hα2A, hα2B and hα2C receptor binding was [^3H]-raulwolscine and for the h5-HT transporter was [^3H]paroxetine.
(§2) CHO cells, stabile transfected with human adrenergic-α2A-, -α2B or α2C receptor cDNA, were cultured in Dulbecco's Modified Eagle's Medium (DMEM)/Nutrient mixture Ham's F12 (ratio 1:1)(Gibco, Gent-Belgium) supplemented with 10% heat inactivated fetal calf serum (Life Technologies, Merelbeke-Belgium) and antibiotics (100 IU/ml penicillin G, 100 μg/ml streptomycin sulphate, 110 μg/ml pyruvic acid and 100 μg/ml L-glutamine). One day before collection, cells were induced with 5 mM sodiumbutyrate. Upon 80–90% of confluence, cells were scraped in phosphate buffered saline without Ca^2+ and Mg^2+ and collected by centrifugation at 1500×g for 10 min. The cells were homogenised in Tris-HCl 50 mM using an Ultraturrax homogenizer and centrifuged for 10 min at 23,500×g. The pellet was washed once by resuspension and rehomogenization and the final pellet was resuspended in Tris-HCl, divided in 1 ml aliquots and stored at −70° C.
(§3) Membranes were thawed and re-homogenized in incubation buffer (glycylglycine 25 mM, pH 8.0). […] Filters were rinsed extensively with ice-cold rinsing buffer (Tris-HCl 50 mM pH 7.4). Filter-bound radioactivity was determined by scintillation counting in a Topcount (Packard, Meriden, Conn.) and results were expressed as counts per minute (cpm). Non-specific binding was determined in the presence of 1 μM oxymetazoline for hα2A- and hα2B receptors and 1 μM spiroxatrine for hα2C receptors.
(§4) Data from assays in the presence of compound were calculated as a percentage of total binding measured in the absence of test compound. Inhibition curves, plotting percent of total binding versus the log value of the concentration of the test compound, were automatically generated, and sigmoidal inhibition curves were fitted using non-linear regression. The pIC50 values of test compounds were derived from individual curves.

[2] = target: T2, hα2B receptor (Homo sapiens, UniProt P18089); assay: Radioligand binding experiment for hα2B receptor ([3H]-raulwolscine); settings: membranes of CHO cells expressing human α2B receptor, [3H]raulwolscine 1 nM; for IC50: read-out: hα2B pIC50 (converted)
T2 construct: expressed in transfected cells
T2 sequence (P18089 1-450): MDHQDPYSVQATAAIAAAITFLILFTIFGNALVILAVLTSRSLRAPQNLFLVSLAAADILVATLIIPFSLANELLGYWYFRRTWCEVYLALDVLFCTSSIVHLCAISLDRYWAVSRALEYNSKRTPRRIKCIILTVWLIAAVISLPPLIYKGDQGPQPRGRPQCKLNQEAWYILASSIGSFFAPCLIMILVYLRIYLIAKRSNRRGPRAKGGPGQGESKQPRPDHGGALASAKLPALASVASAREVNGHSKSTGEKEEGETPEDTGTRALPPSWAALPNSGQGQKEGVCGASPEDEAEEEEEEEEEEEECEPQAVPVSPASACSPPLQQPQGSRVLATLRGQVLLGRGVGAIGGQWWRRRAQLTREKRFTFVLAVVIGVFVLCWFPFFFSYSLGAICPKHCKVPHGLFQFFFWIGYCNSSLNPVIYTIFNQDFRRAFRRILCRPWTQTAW
Method: as §1, §2, §3, §4

[3] = target: T3, hα2C receptor (Homo sapiens, UniProt P18825); assay: Radioligand binding experiment for hα2C receptor ([3H]-raulwolscine); settings: membranes of CHO cells expressing human α2C receptor, [3H]raulwolscine 1 nM; for IC50: read-out: hα2C pIC50 (converted)
T3 construct: expressed in transfected cells
T3 sequence (P18825 1-462): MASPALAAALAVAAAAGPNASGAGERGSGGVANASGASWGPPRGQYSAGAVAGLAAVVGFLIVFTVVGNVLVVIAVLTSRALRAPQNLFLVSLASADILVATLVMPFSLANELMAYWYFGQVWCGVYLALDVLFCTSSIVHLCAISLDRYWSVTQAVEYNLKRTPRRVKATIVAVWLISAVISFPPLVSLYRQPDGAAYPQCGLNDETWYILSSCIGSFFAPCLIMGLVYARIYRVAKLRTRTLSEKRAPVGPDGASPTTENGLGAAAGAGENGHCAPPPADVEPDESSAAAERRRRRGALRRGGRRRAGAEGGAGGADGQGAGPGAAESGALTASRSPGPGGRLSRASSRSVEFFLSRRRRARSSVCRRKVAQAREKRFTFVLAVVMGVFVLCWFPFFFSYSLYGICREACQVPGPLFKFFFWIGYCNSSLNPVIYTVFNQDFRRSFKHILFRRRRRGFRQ
Method: as §1, §2, §3, §4

[4] = target: T4, h5-HT transporter (Homo sapiens, UniProt P31645); assay: Radioligand binding experiment for 5-HT transporter ([3H]paroxetine, human platelet membranes); settings: human platelet membranes, [3H]paroxetine 0.5 nM; for IC50: read-out: 5HTT pIC50 (converted)
T4 construct: Human platelet membranes (Oceanix Biosciences Corporation, Hanover, Md., USA) were thawed; tissue Oceanix Biosciences Corporation, Hanover, Md., USA; host or cells: human platelet membranes
T4 sequence (P31645 whole entry): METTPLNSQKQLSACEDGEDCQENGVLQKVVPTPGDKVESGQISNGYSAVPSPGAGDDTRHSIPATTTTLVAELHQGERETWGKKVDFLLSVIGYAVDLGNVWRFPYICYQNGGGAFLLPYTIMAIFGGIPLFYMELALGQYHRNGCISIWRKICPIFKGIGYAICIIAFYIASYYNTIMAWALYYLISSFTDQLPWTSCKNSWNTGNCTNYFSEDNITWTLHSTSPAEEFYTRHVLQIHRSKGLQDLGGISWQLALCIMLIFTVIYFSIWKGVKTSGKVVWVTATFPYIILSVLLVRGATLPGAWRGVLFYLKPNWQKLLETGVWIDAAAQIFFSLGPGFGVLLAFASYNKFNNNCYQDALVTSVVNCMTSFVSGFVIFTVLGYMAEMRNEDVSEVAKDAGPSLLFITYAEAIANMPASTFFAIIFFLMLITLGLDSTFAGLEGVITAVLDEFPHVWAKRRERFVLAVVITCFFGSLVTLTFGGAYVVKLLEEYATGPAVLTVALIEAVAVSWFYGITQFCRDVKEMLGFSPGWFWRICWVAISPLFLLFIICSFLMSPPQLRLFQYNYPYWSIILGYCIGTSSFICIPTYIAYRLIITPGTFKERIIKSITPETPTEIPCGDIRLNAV
Method: as §1
Human platelet membranes (Oceanix Biosciences Corporation, Hanover, Md., USA) were thawed, diluted in buffer (Tris-HCl 50 mM, 120 mM NaCl and 5 mM KCl) and quickly (max 3 s) homogenised with an Ultraturrax homogenizer. […] Filters were rinsed extensively with ice-cold buffer and radioactivity on the filters was counted in a Topcount liquid scintillation counter (Packard, Meriden, Conn.). Data were expressed as cpm. Imipramine (at 1 μM final concentration) was used to determine the non-specific binding.
as §4

IC50 [1] | IC50 [2] | IC50 [3] | IC50 [4] | Compound | hα2A pIC50 [1] | hα2B pIC50 [2] | hα2C pIC50 [3] | 5HTT pIC50 [4]
– | – | – | – | CC(=O)Oc1ccc2c(c1)OCC1C2=NOC1CN1CCN(CC=Cc2ccccc2)CC1 (centres unmarked) [Compound 233] | 8.33 | 8.20 | 7.94 | 7.36
69.2 nM | 112 nM | 34.7 nM | 30.2 nM | COc1cc2c(cc1OC)C1=NOC(CN3CCN(CC=Cc4cccc(C)c4)CC3)C1CO2 (centres unmarked) [Compound 110] | – | – | – | –
427 nM | 646 nM | 263 nM | 363 nM | COc1cc2c(cc1OC)C1=NOC(CN3CCN(Cc4cccc(Cl)c4)CC3)C1CO2 (centres unmarked) [Compound 14] | – | – | – | –
– | – | – | – | COc1cc2c(cc1Cl)C1=NOC(CN3CCN(CC(C)=Cc4ccccc4)CC3)C1CO2 (centres unmarked) [Compound 246] | 7.55 | 7.90 | 7.86 | 7.50
1.62 nM | 18.6 nM | 1.05 nM | 1.2 nM | COc1cc2c(cc1OC)C1=NOC(CN3CCN(CC4=Cc5ccccc5CC4)CC3)C1CO2 (centres unmarked) [Compound 21] | – | – | – | –
13.2 nM | 18.2 nM | 5.13 nM | 5.13 nM | COc1cc2c(cc1OC)C1=NOC(CN3CCN(CC4=Cc5ccccc5OC4)CC3)C1CO2 (centres unmarked) [Compound 65] | – | – | – | –
72.4 nM | 89.1 nM | 25.1 nM | 1.58 nM | COc1cc2c(cc1OC)C1=NOC(CN3CCN(Cc4ccc5cc(F)ccc5c4)CC3)C1CO2 (centres unmarked) [Compound 76] | – | – | – | –
145 nM | 77.6 nM | 29.5 nM | 12.6 nM | COc1cc2c(cc1OC)C1=NOC(CN3CCN(C/C=C/c4ccc(F)cc4F)CC3)C1CO2 (single isomer, unassigned) [Compound 185] | – | – | – | –
4.79 nM | 3.8 nM | 4.68 nM | 30.2 nM | COc1cc2c(cc1OC(C)=O)C1=NOC(CN3CCN(C/C(C)=C/c4ccccc4)CC3)C1CO2 (single isomer, unassigned) [Compound 333] | – | – | – | –
– | – | – | – | COc1cc2c(cc1OC)C1=NOC(CN(C)C3CCN(Cc4ccc5ccccc5c4)CC3)C1CO2 (racemic) [Compound 281] | 7.05 | 7.19 | 7.31 | 7.25
4.07 nM | 6.03 nM | 1.55 nM | 18.2 nM | COc1cc2c(cc1OC)C1=NOC(CN3CCN(CC(C)Oc4cccc(F)c4)CC3)C1CO2 (centres unmarked) [Compound 27] | – | – | – | –
53.7 nM | 40.7 nM | 87.1 nM | 89.1 nM | CCC(=Cc1ccccc1)CN1CCN(CC2ON=C3c4cc(OC)c(OC)cc4OCC32)CC1 (centres unmarked) [Compound 154] | – | – | – | –
182 nM | 132 nM | 1260 nM | 457 nM | C(=Cc1ccccc1)CN1CCN(CC2ON=C3c4ccccc4CCC32)CC1 (centres unmarked) [Comp 218] | – | – | – | –
13.2 nM | 5.75 nM | 4.37 nM | 126 nM | COc1cc2c(cc1OC)C1=NOC(CN3CCN(CCOc4ccc(F)cc4)CC3)C1CO2 (centres unmarked) [Compound 48] | – | – | – | –
7.76 nM | 20.9 nM | 30.9 nM | 13.2 nM | CC(=O)Oc1ccc2c(c1)OCC1C2=NOC1CN1CCN(Cc2ccc3ccccc3c2)CC1 (centres unmarked) [Compound 273] | – | – | – | –
– | – | – | – | COc1cc2c(cc1OC(C)=O)C1=NOC(CN3CCN(CC(C)=Cc4ccccc4)CC3)C1CO2 (centres unmarked) [Compound 257] | 7.52 | 8.37 | 8.65 | 7.46
3.47 nM | 20.9 nM | 27.5 nM | 14.8 nM | COc1ccc2c(c1)OCC1C2=NOC1CN1CCN(Cc2ccc3ccccc3c2)CC1 (centres unmarked) [Compound 265] | – | – | – | –
102 nM | 64.6 nM | 138 nM | 15.8 nM | COc1cc2c(cc1OC)C1=NOC(CN3CCN(CC=Cc4ccc(F)cc4)CC3)C1CO2 (centres unmarked) [Compound 43] | – | – | – | –
794 nM | 631 nM | 1000 nM | 501 nM | COc1cc2c(cc1OC)C1=NOC(CN3CCN(Cc4ccccc4)CC3)C1CO2 (centres unmarked) [Compound 31] | – | – | – | –
19.1 nM | 38 nM | 36.3 nM | 41.7 nM | COc1cc2c(cc1OC)C1=NOC(CN3CCN(Cc4cc5ccccc5o4)CC3)C1CO2 (centres unmarked) [Compound 54] | – | – | – | –
57.5 nM | 70.8 nM | 43.7 nM | 69.2 nM | COc1cc2c(cc1OC)C1=NOC(CN3CCN(Cc4ccc5ccccc5n4)CC3)C1CO2 (centres unmarked) [Compound 45] | – | – | – | –
– | – | – | – | CN1CC2C(=NOC2CN2CCN(Cc3ccc4ccccc4c3)CC2)c2ccccc21 (centres unmarked) [Compound 266] | 7.84 | 7.80 | 7.45 | 8.88
661 nM | 447 nM | 851 nM | 50.1 nM | COc1cc2c(cc1OC)C1=NOC(CN3CCN(CCc4ccc5c(c4)OCO5)CC3)C1CO2 (centres unmarked) [Compound 47] | – | – | – | –
16.6 nM | 7.41 nM | 6.31 nM | – | COc1cc2c(cc1F)C1=NOC(CN3CCN(CC(C)=Cc4ccccc4)CC3)C1CO2 (centres unmarked) [Compound 241] | – | – | – | –
